The values that follow come from US20110105397A1, “METHOD FOR TREATING HEART FAILURE WITH STRESSCOPIN-LIKE PEPTIDES” (priority 2009, published 2011).

Values joined by “and” are separate entries in the source; they are usually repeats but may differ in a detail not shown here. Equal values may be shown once. Read-outs that look alike come from different tables or passages of the source.

Test [1] deals with T1, human CRHR2 (Homo sapiens, UniProt Q13324).
T1 construct: expressed in transfected cells
T1 sequence (Q13324 1-411): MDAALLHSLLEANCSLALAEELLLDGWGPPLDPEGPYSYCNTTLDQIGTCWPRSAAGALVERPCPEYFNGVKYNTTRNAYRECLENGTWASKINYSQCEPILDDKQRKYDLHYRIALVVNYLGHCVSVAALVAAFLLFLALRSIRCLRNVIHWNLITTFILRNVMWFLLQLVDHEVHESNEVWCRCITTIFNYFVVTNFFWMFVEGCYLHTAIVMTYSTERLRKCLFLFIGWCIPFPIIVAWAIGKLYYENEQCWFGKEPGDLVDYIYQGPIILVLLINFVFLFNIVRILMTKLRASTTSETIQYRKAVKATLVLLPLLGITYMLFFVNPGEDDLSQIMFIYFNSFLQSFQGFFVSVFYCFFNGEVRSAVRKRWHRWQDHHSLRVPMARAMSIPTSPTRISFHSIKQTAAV
Kind of test: cAMP assay, h-CRHR2 transfected SK-N-MC cells. Type of test: cell-based. To be noted: for nH (Hill slope) / αmax (maximal asymptote): h-CRHR2; for αmax (maximal asymptote): in %. A digest of the protocol: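 Intracellular cAMP was quantified by radioligand competition against a cAMP standard curve after HCl lysis of h-CRHR2-transfected SK-N-MC cells. These cells had been exposed to peptides from 1 pM to 1 μM for 1 h at 37 °C with IBMX. Responses were scaled to the daily h-SCP maximum and fitted to the Hill equation to give A50/pA50.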

The target in test [2] is T1, human CRHR2. Kind of test: CRHR2 radioligand binding, [125I]-anti-sauvagine-30, SK-N-MC membranes. To be noted: for Ki / nH: CRHR2. As to the method:
The binding profile of h-SCP (SEQ ID NO:1) at CRHR2 was determined in radioligand binding studies in a membrane preparation of SK-N-MC cells stably transfected with human CRHR2 using [^125I]-anti-sauvagine-30 as the radiolabel. […] The solution was then homogenized with a Polytron tissue grinder at a setting of 10 and 7×3 s (Brinkmann Instruments, Westbury, N.Y.). […] The supernatant was re-centrifuged at 26,892×g for 25 min at 4° Celsius with the final pellet being re-suspended in assay buffer. […] For competition studies, cell membranes of […] volume were incubated with either 60 pM [^125I]-anti-sauvagine-30 in 50 μl volume for the CRHR2 assay or with)[^125I]-([…]-sauvagine for the CRHR1 assay in the presence of 15 μl of competing ligand for 120 min having a total volume of 150 μl. […] The bound radioactivity was separated by filtration using a Multiscreen Resist manifold (Millipore Corp., Billerica, Mass., U.S.A). The filters were washed three times with ice-cold PBS at pH 7.5 and radioactivity retained on the filters was quantified by its liquid scintillation measured by a TopCount counter (Packard BioScience, Boston, Mass., U.S.A). All experiments were performed in triplicate. Data from individual competition curves were expressed as the percentage of specific [^125I]-anti-sauvagine-30 or)[^125I]-([…]-sauvagine binding (B) within each experiment. […] The competition curve obtained with h-SCP (SEQ ID NO:1) was biphasic.

The mark [3] stands for this setting: Table 11, h-CRHR2 transfected SK-N-MC cells, 1 hr at 37° Celsius, read-out: pA50 (Experimental) (converted).

As for “H-TKFTLSLDVPTNIMNLLFNIAKAKNLRAQAAANAHLMAQI-NH2 [SEQ ID NO: 1, TKFTLSLDVPTNIMNLLFNIAKAKNLRAQAAANAHLMAQI-NH2]”, the “nH (Hill slope)” value at human CRHR2 [1] (Table 11, listed as h-SCP) is 0.99 and 1.04 and 1.39 and 1.55. Further, the “αmax (maximal asymptote)” value on human CRHR2 [1] (Table 11, listed as h-SCP) is 99.31 and 97.53 and 116.1 and 98.2. Besides, the EC50 is 0.389 nM and 0.708 nM and 0.437 nM and 0.407 nM at human CRHR2 [1] (setting [3]); 0.182 to 0.339 nM on human CRHR2 [1] (Table 13, cysteine mutation, N-ethylmaleimide capping, pegylation, read-out: pA50 (converted)); 0.398 nM on human CRHR2 [1] (Table 14, read-out: pA50 (converted)). For the same compound, the nH at human CRHR2 [1] (Table 12) was 1.18; on human CRHR2 [1] (Table 14), 1.26; at human CRHR2 [2], 1.00 ± 0.04. Besides, the αmax is recorded as 98.68 at human CRHR2 [1] (Table 12, normalized to the maximum response to h-SCP) and 100.1% on human CRHR2 [1] (Table 14, % of the maximum response obtained to h-SCP). Affinity at human CRHR2 [2] was put at a Ki of 1950 nM. In addition, the “competition curve / binding profile” value on human CRHR2 [2] (CRHR2, [125I]-anti-sauvagine-30) is “biphasic”. Further, at human CRHR2 [2] (biphasic competition curve, read-out: low pIC50 (low affinity receptor binding state) (converted)), the IC50 was 251 nM.

For “H-HPGSRIVLSLDVPIGLLQILLEQARARAAREQATTNARILARV-NH2 [SEQ ID NO: 117, HPGSRIVLSLDVPIGLLQILLEQARARAAREQATTNARILARV-NH2, reference compound]”, on human CRHR2 [1] (Table 11, listed as h-SRP), the “nH (Hill slope)” value is 1.08 and 1.06 and 0.99; the “αmax (maximal asymptote)” value was 113.5 and 108.7 and 98.56. Besides, on human CRHR2 [1] (setting [3]), the EC50 is 0.479 nM and 0.263 nM and 0.589 nM. On human CRHR2 [2], this compound gave a Ki of 26.9 nM and a nH of 1.26 ± 0.14.

Regarding `CC[C@H](C)[C@H](NC(=O)[C@H](CO)NC(=O)[C@H](CC(C)C)NC(=O)[C@@H]1CCCN1C(=O)[C@@H]1CCCN1C(=O)[C@H](CC(=O)O)NC(=O)[C@@H](N)CC(=O)O)C(=O)N[C@@H](CC(=O)O)C(=O)N[C@@H](CC(C)C)C(=O)N[C@H](C(=O)N[C@@H](Cc1ccccc1)C(=O)N[C@@H](Cc1c[nH]cn1)C(=O)N[C@@H](CC(C)C)C(=O)N[C@@H](CC(C)C)C(=O)N[C@@H](CCCNC(=N)N)C(=O)N[C@H](C(=O)N[C@@H](CC(C)C)C(=O)N[C@@H](CC(C)C)C(=O)N[C@@H](CCC(=O)O)C(=O)N[C@@H](CC(C)C)C(=O)N[C@@H](C)C(=O)N[C@@H](CCCNC(=N)N)C(=O)N[C@H](C(=O)N[C@@H](CCC(N)=O)C(=O)N[C@@H](CO)C(=O)N[C@@H](CCC(N)=O)C(=O)N[C@@H](CCCNC(=N)N)C(=O)N[C@@H](CCC(=O)O)C(=O)N[C@@H](CCCNC(=N)N)C(=O)N[C@@H](C)C(=O)N[C@@H](CCC(=O)O)C(=O)N[C@@H](CCC(N)=O)C(=O)N[C@@H](CC(N)=O)C(=O)N[C@@H](CCCNC(=N)N)C(=O)N[C@H](C(=O)N[C@H](C(=O)N[C@@H](Cc1ccccc1)C(=O)N[C@@H](CC(=O)O)C(=O)N[C@@H](CO)C(=O)N[C@H](C(N)=O)C(C)C)[C@@H](C)CC)[C@@H](C)CC)[C@@H](C)O)[C@@H](C)O)[C@@H](C)O` [SEQ ID NO: 114, DDPPLSIDLTFHLLRTLLELARTQSQRERAEQNRIIFDSV-NH2], on human CRHR2 [1] (Table 11), the “nH (Hill slope)” value came to 1.07 and the “αmax (maximal asymptote)” value was determined as 110.5. Further, on human CRHR2 [1] (setting [3]), the EC50 was 0.832 nM. On human CRHR2 [2], this compound had a Ki of 3.09 nM and a nH of 1.19 ± 0.14.
